From article PMC9090717, “Fullerenemalonates inhibit amyloid beta aggregation, in vitro and in silico evaluation” (RSC Advances, 2018)
Where “and” joins values, the source holds several entries; their conditions need not be identical. Identical values can stand only once. Like-named read-outs stand apart in the source and are kept apart here.

What was measured:
[1] = tested on: Aβ42; conditions: cited from earlier work
[2] = tested on: SH-SY5Y neuroblastoma cells; conditions: human, 24 h, 13 μM
Procedure: (§1) The neuroblastoma cell lines SH-SY5Y (ATCC) were grown in 25 cm^2 flasks at 37 °C with 5% CO2 in advanced DMEM/F-12 medium (Sigma-Aldrich), supplemented with 10% fetal bovine serum (Invitrogen); for cytotoxicity assay, cells were seeded at a density of 1 × 10^4 in triplicate per sample in a 96 well microplate 24 h before the treatment. The fullerenemalonates were incubated for 24 h at the corresponding concentration for their ability to inhibit Aβ42 aggregation, 13 μM. Likewise, the vehicles of each fullerenemalonate other than water (acetonitrile and ethanol) were assessed to validate its toxicity. The cell viability assay was evaluated using Thiazolyl Blue Tetrazolium Bromide (MTT, Sigma-Aldrich); based on the conversion of MTT to water-insoluble MTT-formazan of dark blue color by the mitochondrial dehydrogenases of living cells. The absorbance of formazan was measured at a wavelength of 570 nm in a plate reader, iMark Biorad. For a cytotoxic concentration (CC50) the fullerenemalonates were incubated at different concentrations followed by a cell viability assay. The CC50 was determined from the curves obtained by fitting the average absorbance values in three independent experiments in the 10–80 μM fullerenemalonate concentration range.

[3] = parameters: method as in PMID 16853553; conditions: aqueous solution; cited from earlier work
[4] = tested on: SH-SY5Y neuroblastoma cells; experiment: MTT cell viability assay; conditions: 13 μM, 24 h, normalized to control
Procedure: as §1

Molecule: 1,2-(dimethoxymethano) fullerene
- IC50 ([1]; Aβ42 concentration 20 μM, read-out: IC50, inhibition of Aβ peptide aggregation): ~9 µM

Molecule: CCOC(=O)C1(C(=O)OCC)C23c4c5c6c7c8c4-c4c2c2c9c%10c%11c%12c(c-5c5c%13c%14c%15c%16c%17c(c-7c7c%18c%19c%20c%21c(c4C%204C(C(=O)OCC)(C(=O)OCC)C874)c2c2c9c4c%11c7c(c%13%12)c%14c8c%16c9c(c%18%17)c%19c%11c%21c2c2c4c7c8c9c%112)C%152C(C(=O)OCC)(C(=O)OCC)C652)C%1013 (stereo not drawn) [C3-C63(COOEt)6]
- Cell survival rate (%) [2]: 78.59 ± 0.22%

Molecule: CCOC(=O)C1(C(=O)OCC)C23c4c5c6c7c8c9c(c%10c%11c2c2c4c4c%12c5c5c6c6c8c8c%13c9c9c%10c%10c%11c%11c2c2c4c4c%12c%12c5c5c6c8c6c8c%13c9c9c%10c%10c%11c2c2c4c4c%12c5c6c5c8c9c%10c2c45)C713 [C61(COOEt)2]
- Cell survival rate (%) [2]: 65.65 ± 0.29%

Molecule: O=C([O-])C1(C(=O)[O-])C23c4c5c6c7c8c9c(c%10c%11c2c2c4c4c%12c5c5c6c6c8c8c%13c9c9c%10c%10c%11c%11c2c2c4c4c%12c%12c5c5c6c8c6c8c%13c9c9c%10c%10c%11c2c2c4c4c%12c5c6c5c8c9c%10c2c45)C713.[Na+].[Na+] [C61(COONa)2]
- Average hydrodynamic radius Rh of self-assembled particles [3]: ≈ 32 nm
- Cell survival rate (%) [4]: 64% and 64.34 ± 0.30%

Molecule: sodium fullerenolate
- Anti-amyloid activity in Aβ42 [1]: strong anti-amyloid activity
